The nature of the data set: Storage stability in an accelerated test (open glass beaker, 40 days at 30° C.). The class given is physicochemical. The following applies: for Analytical value (concentration of nitrification inhibitor on the mineral fertilizer): Value at start. As to the method:
The concentration of nitrification inhibitor on the mineral fertilizer was determined before, during and after storage at two different depths in the bed, and the loss of nitrification inhibitor was ascertained. In each case about 10 to 30 g of treated mineral fertilizer were stored. The concentration of DMPP at the start was 1.028 g/kg fertilizer; for 2-(N-3,4-dimethylpyrazole)succinic acid, the figure was 1.244 g/kg fertilizer.
After 20 and 40 days, samples were taken from a surface region of the fertilizer bed (0 to 5 cm sampling depth and >5 cm sampling depth).
The results are shown in table 1 below, where DMPSA denotes 2-(N-3,4-dimethylpyrazole)succinic acid.

The structures appear in SMILES notation.

In the case of `Cc1cn(C(CC(=O)O)C(=O)O)nc1C` (stereo not drawn) [DMPSA, 2-(N-3,4-dimethylpyrazole)succinic acid], the “Analytical value (concentration of nitrification inhibitor on the mineral fertilizer)” value stood at 1.244 g/kg. For the same molecule, the “loss of nitrification inhibitor on storage, compared with DMPP” value (storage over 20 to 40 days on CAN) is “much lower”.
Regarding `Cc1c[nH]nc1C.O=P(O)(O)O` [DMPP, 3,4-dimethylpyrazole phosphate, reference compound], the “Analytical value (concentration of nitrification inhibitor on the mineral fertilizer)” value is reported as 1.028 g/kg.

The values are drawn from US20170050894A1, “FERTILIZER MIXTURE CONTAINING NITRIFICATION INHIBITOR” (EUROCHEM AGRO GMBH, priority 2013, published 2017).
